Broadly, the melting point is the temperature, or range, at which the solid turns liquid. For the compound `O=C1C(=O)c2ccc(-c3ccccc3)cc2C2=C1SCC1(CCN(C[C@@H](O)COc3ccc(Cl)cc3)CC1)O2`, the melting point was 111 to 112 °C.

Compound `O=C1C(=O)c2ccccc2C2=C1SCC1(CCN(CC3CCCCO3)CC1)O2` (centres unmarked) returned a melting point of 135 to 137 °C.

For the compound `O=C1C(=O)c2ccc(N3CCCCC3)cc2C2=C1SCC1(CCNCC1)O2`, the melting point is 300 °C (dec.).

Take `CC(C)(C)c1ccc(OC[C@@H](O)CN2CCC3(CC2)CSC2=C(O3)c3cc(Br)ccc3C(=O)C2=O)cc1`: the melting point lay within 150 to 152 °C.

With `COc1ccc2c(c1)C(=O)C(=O)C1=C2OC2(CCN(C(=O)c3cccc(Cl)c3)CC2)CS1`, the melting point was 130 °C (dec.).

Regarding `COc1ccc2c(c1)C1=C(SCC3(CCN(C[C@H](O)Cc4ccccc4)CC3)O1)C(=O)C2=O`, the melting point turned out to be 106 °C.

In turn, `COc1ccc2c(c1)C1=C(SCC3(CCN(Cc4ccc(F)cc4)CC3)O1)C(=O)C2=O` came in with a melting point of 196 to 197 °C.

As for `COc1ccc2c(c1)C1=C(SCC3(CCN(C[C@@H](O)Cc4ccccc4)CC3)O1)C(=O)C2=O`, the melting point was found to be 110 °C.

`O=C1C(=O)c2ccc(-c3ccccc3)cc2C2=C1SCC1(CCN(C(=O)Oc3cccc(C(F)(F)F)c3)CC1)O2` gave a melting point of 188 to 190 °C.

Consider `O=C1C(=O)c2ccccc2C2=C1SCC1(CCCCC1)O2`, for which the melting point fell in the range of 194 to 195 °C.

On to `O=C1C(=O)c2ccccc2C2=C1SCC1(CCN(C(=O)Cc3ccc(Cl)cc3)CC1)O2`, for which the melting point was 120 to 125 °C.

`O=C1C(=O)c2ccccc2C2=C1SCC1(CCN(Cc3ccc(F)cc3F)CC1)O2`: the melting point lay within 104 to 107 °C.

`O=C1C(=O)c2ccccc2C2=C1SCC1(CCN(C(=O)/C=C/c3ccccc3Cl)CC1)O2` had a melting point of 110 to 115 °C.

Take `CC(C)(C)OC(=O)NC1CCC2(CC1)CSC1=C(O2)c2ccccc2C(=O)C1=O` (centres unmarked): the melting point lay within 224 to 225 °C.

In the case of `O=C1C(=O)c2ccccc2C2=C1SCC1(CCN(c3cc(Cl)ncn3)CC1)O2`, the melting point was in the range of 172 to 174 °C.

Turning to `O=C1C(=O)c2ccc(F)cc2C2=C1SCC1(CCN(C[C@@H](O)Cc3ccccc3)CC1)O2`, the melting point fell in the range of 77 to 79 °C.

`COC(=O)Cc1ccc(OC[C@H](O)CN2CCC3(CC2)CSC2=C(O3)c3ccccc3C(=O)C2=O)cc1`: the melting point lay within 122 to 124 °C.

Turning to `O=C1C(=O)c2ccc(-c3cccc(C(F)(F)F)c3)cc2C2=C1SCC1(CCNCC1)O2`, the melting point lay in the range of 199 to 203 °C.

`O=C1C(=O)c2ccc(Br)cc2C2=C1SCC1(CCN(C(=O)c3cccc(Cl)c3)CC1)O2` had a melting point of 135 to 140 °C.

In the case of `O=C1C(=O)c2ccc(Br)cc2C2=C1SCC1(CCN(C[C@H](O)COc3ccc4cc(Br)ccc4c3)CC1)O2`, the melting point fell in the range of 104 to 105 °C.

`O=C1C(=O)c2ccccc2C2=C1SCC1(CCN(CC3CCCO3)CC1)O2` (centres unmarked): the melting point was in the range of 155 to 159 °C.

`Cl.NC1CCC2(CC1)CSC1=C(O2)c2ccccc2C(=O)C1=O` (centres unmarked) yielded a melting point of 256 to 257 °C.

In turn, `O=C1C(=O)c2ccccc2C2=C1SCC1(CCC3(CC1)OCCO3)O2` registered a melting point of 251 to 252 °C.

Compound `O=C1C(=O)c2ccc(-c3ccncc3)cc2C2=C1SCC1(CCNCC1)O2` displayed a melting point of 223 to 228 °C.

With `CC(C)(C)OC(=O)N1CCC2(CC1)CSC1=C(O2)c2cc(-c3ccccc3C(F)(F)F)ccc2C(=O)C1=O`, the melting point is 223 to 225 °C.

`COc1ccc2c(c1)C1=C(SCC3(CCN(C[C@H](O)COc4ccc(F)cc4)CC3)O1)C(=O)C2=O` yielded a melting point of 80 to 81 °C.

In turn, `COc1ccc2c(c1)C1=C(SCC3(CCN(C(=O)Oc4cccc(C(F)(F)F)c4)CC3)O1)C(=O)C2=O` registered a melting point of 88 to 89 °C.

Consider `Cl.O=C1C(=O)c2ccccc2C2=C1SCC1(CCN(C(=O)C3CCNCC3)CC1)O2`, for which the melting point fell in the range of 94 to 100 °C.

The compound `O=C1C(=O)c2ccc(Br)cc2C2=C1SCC1(CCN(C(=O)Oc3cccc(C(F)(F)F)c3)CC1)O2` displayed a melting point of 210 to 211 °C.

The values above are taken from patent US7902354B2, “Lapachone compounds and methods of use thereof” (ArQule, Inc., priority 2006, dated 2011).
